These compounds were tested against T1, Solute carrier family 12 member 5 (Homo sapiens, UniProt Q9H2X9) (assay: concentration-response of KCC2 transport modulators – cell-based, HEK293 KCC2, FluoZin-2 fluorescence, dose response (AID 1736)). Settings: not given.
T1 sequence (Q9H2X9 whole entry): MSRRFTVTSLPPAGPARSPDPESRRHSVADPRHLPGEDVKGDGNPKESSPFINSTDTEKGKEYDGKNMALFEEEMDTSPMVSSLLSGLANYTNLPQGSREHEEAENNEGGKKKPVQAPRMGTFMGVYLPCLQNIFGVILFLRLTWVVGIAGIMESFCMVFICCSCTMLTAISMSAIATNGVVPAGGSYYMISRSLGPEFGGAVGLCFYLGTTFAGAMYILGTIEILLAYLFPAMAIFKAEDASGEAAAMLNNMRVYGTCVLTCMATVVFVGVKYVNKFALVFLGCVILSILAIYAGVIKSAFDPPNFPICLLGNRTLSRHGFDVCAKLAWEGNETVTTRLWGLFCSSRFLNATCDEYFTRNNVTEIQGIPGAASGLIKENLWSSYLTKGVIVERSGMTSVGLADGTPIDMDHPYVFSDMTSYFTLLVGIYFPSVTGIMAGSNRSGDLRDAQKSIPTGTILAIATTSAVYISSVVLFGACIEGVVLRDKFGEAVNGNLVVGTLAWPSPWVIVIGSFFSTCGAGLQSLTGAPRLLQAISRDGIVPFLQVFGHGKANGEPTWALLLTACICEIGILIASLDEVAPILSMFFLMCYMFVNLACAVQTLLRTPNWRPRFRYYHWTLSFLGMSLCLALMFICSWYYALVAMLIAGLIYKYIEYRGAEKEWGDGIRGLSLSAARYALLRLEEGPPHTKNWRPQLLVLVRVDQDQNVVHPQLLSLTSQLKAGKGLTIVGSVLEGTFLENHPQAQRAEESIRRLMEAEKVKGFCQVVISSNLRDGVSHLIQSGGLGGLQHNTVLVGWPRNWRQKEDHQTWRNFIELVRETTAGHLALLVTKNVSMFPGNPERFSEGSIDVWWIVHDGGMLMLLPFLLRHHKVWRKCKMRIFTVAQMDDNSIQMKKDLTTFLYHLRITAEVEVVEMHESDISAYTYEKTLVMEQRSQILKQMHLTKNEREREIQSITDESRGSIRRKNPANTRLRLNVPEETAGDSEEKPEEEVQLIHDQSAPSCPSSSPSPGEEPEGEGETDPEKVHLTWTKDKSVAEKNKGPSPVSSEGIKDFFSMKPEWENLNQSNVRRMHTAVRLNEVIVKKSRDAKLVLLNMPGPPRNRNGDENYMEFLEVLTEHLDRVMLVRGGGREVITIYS

Row | EC50 | SMILES
1 | 6.91 µM | Cc1ccc2c(c1)nnn2C1CCN(S(=O)(=O)c2cccc(S(=O)(=O)N(C)C)c2)CC1 [MLS000033642]
2 | 26.5 µM | O=C(CSc1ncccc1-c1nc2ccccc2[nH]1)N1CCN(c2ccccc2F)CC1 [MLS000033700]
3 | 26.5 µM | O=C(OC1CCc2ccccc2C1=O)c1ccccc1O (centres undefined) [MLS000051417]
4 | 24.4 µM | Cc1nn(-c2nc3ccccc3[nH]2)c(N)c1-c1ccccc1 [MLS000063763]
5 | 1.56 µM | Cc1nonc1NC(=O)CSc1ccc(-c2ccccc2)nn1 [MLS000074514]
6 | 41100 µM | O=C(NCc1cccs1)c1nc2c(nnn2Cc2ccc(F)cc2)c(=O)[nH]1 [MLS000074753]
7 | 3.74 µM | CS(=O)(=O)N(CC(=O)N1CCN(c2ccccc2)CC1)c1cccc(Br)c1 [MLS000110474]
8 | 4.93 µM | Cn1c(C(=O)NCCCN2CCN(c3ccccc3F)CC2)cc2c(=O)n(C)c3ccccc3c21 [MLS000118127]
9 | 1.74 µM | Cn1c(C(=O)NCCN2CCN(c3ccccc3F)CC2)cc2c(=O)n(C)c3ccccc3c21 [MLS000118132]
10 | 3 µM | CCN(CC)S(=O)(=O)c1ccc(NC(=O)CSc2ncnc3ccccc23)cc1 [MLS000393282]
11 | 17.5 µM | CC1Cc2ccccc2N1C(=O)CN(C)S(=O)(=O)c1cccc2cccnc12 (centres undefined) [MLS000523063]
12 | 20.6 µM | CS(=O)(=O)N(CC(=O)N1CCN(c2ccc(F)cc2)CC1)c1ccc(F)c(Cl)c1 [MLS000531433]
13 | 3 µM | Cc1ccc(C(=O)Nc2nc(=O)n(C(=O)c3ccccc3Cl)s2)cc1 [MLS000540480]
14 | 0.0106 µM | O=C(NNc1nc(-c2ccccc2)cs1)c1ccccc1 [MLS000547345]
15 | 19.1 µM | CCn1c(CCNC(=O)c2cccs2)nnc1SCC(=O)Nc1nc(-c2ccccc2)cs1 [MLS000548611]
16 | 15.5 µM | O=[N+]([O-])c1ccccc1C=C[CH+][N-]n1c(-c2ccc(Cl)cc2)n[nH]c1=S [MLS000555506]
17 | 3.03 µM | O=C(CC(Cc1ccccc1)c1ccco1)NC1CCCCC1 (centres undefined) [MLS000556612]
18 | 2 µM | CC(=NNC(=O)c1ccc(Br)cc1)c1ccccc1 [MLS000558629]
19 | 20.6 µM | Cc1nn2c(nc(O)c3ccccc32)c1C=O [MLS000565386]
20 | 2.64 µM | Cc1nn(-c2ccc(F)cc2)c(C)c1NS(=O)(=O)c1ccc2ccccc2c1 [MLS000565745]
21 | 3.38 µM | CNC(=O)/C(=C\C=C\c1ccccc1)NC(=O)c1ccc([N+](=O)[O-])cc1 [MLS000570424]
22 | 45.5 µM | CCn1c(SCC(=O)Nc2ccc(Cl)cc2)nc2nc3c(cc2c1=O)CCCC3 [MLS000589154]
23 | 1.68 µM | O=C(CSc1ccc(-c2cccs2)nn1)Nc1ccccc1F [MLS000621184]
24 | 10 µM | O=C(C=Cc1ccccc1)CC(=O)c1ccccc1O [MLS000627068]
25 | 544 µM | O=C(NCc1nc(-c2ccccc2)cs1)c1ccccc1 [MLS000661971]
26 | 0.27 µM | CN(CC(=O)N1CCN(Cc2ccccc2)CC1)S(=O)(=O)c1cccc2nsnc12 [MLS000674627]
27 | 0.156 µM | O=C(NC(=S)Nc1cccc2cccnc12)c1cccs1 [MLS000688132]

Further lines, the compound ahead of its results:

Row | SMILES | EC50
28 | CN1C(=O)/C(=C/c2ccccc2OCc2ccccc2)NC1=S [(5Z)-3-methyl-5-[(2-phenylmethoxyphenyl)methylidene]-2-sulfanylidene-4-imidazolidinone] | 1640 µM
29 | Oc1ccccc1CN=Nc1nc2ccccc2o1 [(6E)-6-[(1,3-benzoxazol-2-ylhydrazo)methylidene]-1-cyclohexa-2,4-dienone] | 367 µM
30 | CCCCCN1C/C=C\C(c2ccc(OC)cc2)N(Cc2ccc(F)cc2)C(=O)C1 (centres undefined) [(6Z)-1-amyl-4-(4-fluorobenzyl)-5-(4-methoxyphenyl)-5,8-dihydro-2H-1,4-diazocin-3-one] | 8.78 µM
31 | O=C(/C=C/c1ccco1)N1CCC(Cc2ccccc2)CC1 [(E)-1-(4-benzylpiperidin-1-yl)-3-(furan-2-yl)prop-2-en-1-one] | 9.8 µM
32 | CC(C)CCNC(=O)COC(=O)/C=C/c1ccc2ccccc2n1 [(E)-3-(2-quinolinyl)-2-propenoic acid [2-(3-methylbutylamino)-2-oxoethyl] ester] | 2.3 µM
33 | CC1Cc2ccccc2N1C(=O)/C=C/c1cccc(F)c1 (centres undefined) [(E)-3-(3-fluorophenyl)-1-(2-methyl-2,3-dihydroindol-1-yl)-2-propen-1-one] | 192 µM
34 | COc1ccc(-c2nnc(S/C(=C/c3ccc(Cl)cc3)C(=O)O)o2)cc1 [(E)-3-(4-chlorophenyl)-2-[[5-(4-methoxyphenyl)-1,3,4-oxadiazol-2-yl]sulfanyl]prop-2-enoic acid] | 0.388 µM
35 | O=C(O)/C=C/c1cn(Cc2ccccc2Cl)nc1-c1ccccc1 [(E)-3-[1-(2-chlorobenzyl)-3-phenyl-pyrazol-4-yl]acrylic acid] | 0.409 µM
36 | O=C(O)CC/C(=C\c1ccccc1[N+](=O)[O-])c1nc2ccccc2s1 [(E)-4-(1,3-benzothiazol-2-yl)-5-(2-nitrophenyl)-4-pentenoic acid] | 350 µM
37 | O=C(O)CC/C(=C\c1ccc(N2CCCC2)c([N+](=O)[O-])c1)c1nc2ccccc2s1 [(E)-4-(1,3-benzothiazol-2-yl)-5-(3-nitro-4-pyrrolidin-1-yl-phenyl)pent-4-enoic acid] | 233 µM
38 | O=C(O)CC/C(=C\c1ccc(N2CCOCC2)c([N+](=O)[O-])c1)c1nc2ccccc2s1 [(E)-4-(1,3-benzothiazol-2-yl)-5-(4-morpholin-4-yl-3-nitro-phenyl)pent-4-enoic acid] | 12.2 µM
39 | COc1ccccc1N1CCN(C(=S)NC(=O)/C=C/c2ccccc2)CC1 [(E)-N-[4-(2-Methoxy-phenyl)-piperazine-1-carbothioyl]-3-phenyl-acrylamide] | 11.9 µM
40 | CC[C@H](CO)Nc1nc(Nc2cccc(Cl)c2)c2ncn(C(C)C)c2n1 [(R)-2-(6-(3-chlorophenylamino)-9-isopropyl-9H-purin-2-ylamino)butan-1-ol] | 10.6 µM
41 | O=C(CNC(=O)/C(=C/c1ccccc1)NC(=O)c1ccc(Br)cc1)OCc1ccccc1 [(phenylmethyl) 2-[[(Z)-2-[(4-bromophenyl)carbonylamino]-3-phenyl-prop-2-enoyl]amino]ethanoate] | 2 µM

Same assay, conditions: inactive by the depositor's call

Row | EC50 | SMILES
42 | 40.9 µM | O=C(NCCCCc1ccccc1)C1CC(c2ccccc2C(F)(F)F)=NO1 (centres undefined) [MLS000561910]
43 | 16.9 µM | C[C@@H](C(=O)Nc1ccc2ccccc2c1)[C@@H]1C[C@@]1(C)[C@@H](NC(=O)c1cccnc1)c1ccccc1 [MLS000563527]
44 | 24.9 µM | CCOC(=S)N=C(NS(=O)(=O)c1ccc(C)cc1)c1ccccc1 [MLS000579749]
45 | 296 µM | O=C(CCc1ccccc1)NC(=S)Nc1cccc(Br)c1 [MLS000583293]
46 | 101 µM | O=C(Nc1cc(S(=O)(=O)N2CCCCC2)ccc1Cl)c1ccccc1NS(=O)(=O)c1ccc(F)cc1 [MLS000707627]

The next lines start with the compound.

Row | SMILES | EC50
47 | COc1cc(OC)c(C(=O)/C=C/c2ccccc2)c(O)c1O [(E)-1-(2,3-dihydroxy-4,6-dimethoxy-phenyl)-3-phenyl-prop-2-en-1-one] | 486 µM
48 | N#C/C(=C\c1cn(-c2ccccc2)nc1-c1cccnc1)c1nnc2n1CCCCC2 [(E)-3-(1-phenyl-3-pyridin-3-yl-pyrazol-4-yl)-2-(6,7,8,9-tetrahydro-5H-[1,2,4]triazolo[4,3-a]azepin-3-yl)prop-2-enenitrile] | 1.45 µM
49 | O=C(NC(=S)NNC(=O)c1ccccc1O)c1ccco1 [Furan-2-carboxylic acid [N'-(2-hydroxy-benzoyl)-hydrazinocarbothioyl]-amide] | 303 µM

— BindingDB's records for doi:10.7270/Q2M32T6M (Vanderbilt Screening Center for GPCRs, Ion Channels and …, 2009)
